The source of these data is patent publication US20090318470A1, “1-SUBSTITUTED-3-(NAPHTHALEN-1-YLSULFONYL)-5-(PIPERAZIN-1-YL)-1H-INDAZOLE COMPOUNDS AS 5-HYDROXYTRYPTAMINE-6 LIGANDS” (Wyeth, priority 2008, published 2009).

Series [1] concerns the target T1, serotonin 5HT6 receptor subtype (Homo sapiens, UniProt P50406).
T1 construct: host or cells: CHO-Dukx-A2 cells, clone 50-7
Kind of series: 5HT6 Binding Affinity ([3H]-LSD SPA binding).

Series [2] can be described thus: Pharmacokinetics following a single IV bolus. To be noted: male, Long Evans, rat, in vivo; single IV bolus at 2 mg/kg, n = 3. Also on record: species or system Male Long Evans Rats. As for the experimental part:
(§1) Pharmacokinetics and CNS Penetration of Compounds were Determined Using HPLC Analysis of the Prepared Samples and Presented in Tables 2, 3, & 4 Below
(§2) Male Long Evans Rats were dosed with the candidate drug substance at the dosage amount and route listed above using standard pharmacokinetic procedures (Applied Biopharmaceutics & Pharmacokinetics, Shargel, L and Yu, A, 4th Ed 1999, McGraw-Hill, N.Y.; Welling, P G, Pharmacokinetics, Process and Mathematics, ACS Monograph 185, American Chemical Society 1986, Washington, D.C.; Lee, P and Amidon, G L, Pharmacokinetic Analysis-A Practical Approach, Technomic Pub Co Lancaster Pa. 1996)).

Series [3] in a line: Pharmacokinetics following a single oral dose. Also noted: species or system Male Long Evans Rats. The following applies: male, Long Evans, rat, in vivo; for bioavailability: po, 10 mg/kg, Table 1, obtained according to Example 10; for AUC(0-inf): single oral dose of 10 mg/kg. On the procedure:
as §1, §2

Series [4] in a line: CNS penetration following a single intraperitoneal dose. It is filed as in vivo, Male Long Evans Rats. To be noted: for Kp: male, Long Evans, rat, brain and plasma, read-out: Brain/plasma ratio.
Series [5] can be described thus: Microsomal stability, rat. It is filed as in vitro ADME. To be noted: Rat microsomes. As for the experimental part:
(§3) Compounds listed in Table 5, column A, are prepared as described in U.S. Pat. No. 7,238,696. Each of the compounds in Table 5, columns A and B, were screen according to the microsomal stability procedure described in Di et al., Journal of Biomolecular Screening 2003:453-462.

The nature of series [6]: Microsomal stability, human. It is filed as in vitro ADME. The following applies: Human microsomes. As for the experimental part: as §3
The mark [7] stands for this setting: CHO-Dukx-A2 cells expressing 5HT6, 3 nM [3H]-LSD, Cheng-Prusoff, read-out: 5HT6 Ki.
Setting [8] is: intraperitoneal, 10 mg/mL, Table 1, obtained according to Example 10.
Where [9] appears, read: ip, Table 4, single intraperitoneal dose of 10 mg/kg, n = 3.

Counter-ions that a name gives are not always drawn. Like-named read-outs stand apart in the source and are kept apart here.

T1 sequence (P50406 whole entry): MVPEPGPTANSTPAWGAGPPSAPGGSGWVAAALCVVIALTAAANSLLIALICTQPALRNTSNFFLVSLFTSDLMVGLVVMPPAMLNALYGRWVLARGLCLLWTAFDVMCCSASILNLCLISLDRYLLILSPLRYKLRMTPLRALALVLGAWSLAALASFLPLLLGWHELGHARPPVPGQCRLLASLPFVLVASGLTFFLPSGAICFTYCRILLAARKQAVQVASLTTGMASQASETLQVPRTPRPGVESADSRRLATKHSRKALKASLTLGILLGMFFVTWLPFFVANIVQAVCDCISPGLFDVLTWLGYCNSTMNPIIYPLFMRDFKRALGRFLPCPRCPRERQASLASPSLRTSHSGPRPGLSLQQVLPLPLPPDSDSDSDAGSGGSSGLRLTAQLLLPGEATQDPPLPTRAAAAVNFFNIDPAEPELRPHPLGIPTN

As to `CC(=O)n1nc(S(=O)(=O)c2cccc3ccccc23)c2cc(N3CCNCC3)ccc21` [Example 4, 1-(3-(Naphthalen-1-ylsulfonyl)-5-(piperazin-1-yl)-1H-indazol-1-yl)ethanone hydrochloride], in series [1] (setting [7]), the Ki (as a rule, a dissociation constant, usually derived from enzyme kinetics or from competition with a known ligand) was found to be 1 nM.

Take `O=S(=O)(c1cccc2ccccc12)c1n[nH]c2ccc(N3CCNCC3)cc12` [Compound C, 3-(naphthalen-1-ylsulfonyl)-5-(piperazin-1-yl)-1H-indazole dihydrochloride, reference compound]: in series [1], the affinity, expressed as Ki, was 0.8 nM. Also, the AUC(0-inf) – broadly, total exposure, with the tail of the curve extrapolated – in series [2] came out at 390 ng·h/mL; in series [3], 119 ng·h/mL. Moreover, the bioavailability (as a rule, dose-corrected exposure relative to a reference, in per cent) in series [3] is 3%. Moreover, the Kp in series [4] (setting [8]) and in series [4] (setting [9]) was < 0.01 each time. The AUClast entry in series [4] (matrix brain, single intraperitoneal dose of 10 mg/kg, n = 3) is reported as “Not detectable”.

As to `CC(C)n1nc(S(=O)(=O)c2cccc3ccccc23)c2cc(N3CCNCC3)ccc21` [Example 8, 1-Isopropyl-3-(naphthalen-1-ylsulfonyl)-5-(piperazin-1-yl)-1H-indazole dihydrochloride], in series [1] (setting [7]), the Ki came out at 3 nM. Besides, in series [4] (setting [8]), the Kp was 0.36. Besides, the “Microsomal Stability” value in series [5] and in series [6] was >30 min each time.

Consider `CCCn1nc(S(=O)(=O)c2cccc3ccccc23)c2cc(N3CCNCC3)ccc21` [Example 7, 3-(Naphthalen-1-ylsulfonyl)-5-(piperazin-1-yl)-1-propyl-1H-indazole dihydrochloride], for which the Ki in series [1] (setting [7]) amounted to 2.2 nM.

In the case of `CCn1nc(S(=O)(=O)c2cccc3ccccc23)c2cc(N3CCNCC3)ccc21` [Example 6, 1-Ethyl-3-(naphthalen-1-ylsulfonyl)-5-(piperazin-1-yl)-1H-indazole dihydrochloride], in series [1] (setting [7]), the Ki is 1.9 nM. In addition, the Kp in series [4] (setting [8]) came to 0.45.

As to `O=S(=O)(c1cccc2ccccc12)c1nn(Cc2cccc(Cl)c2)c2ccc(N3CCNCC3)cc12` [Example 3, 1-(3-Chlorobenzyl)-5-(piperazin-1-yl)-3-(naphthalen-1-ylsulfonyl)-1H-indazole dihydrochloride], in series [1] (setting [7]), the Ki stood at 23.5 nM.

On to `CC(C)Cn1nc(S(=O)(=O)c2cccc3ccccc23)c2cc(N3CCNCC3)ccc21` [Example 1, 1-Isobutyl-3-(naphthalen-1-ylsulfonyl)-5-(piperazin-1-yl)-1H-indazole dihydrochloride], for which the Ki in series [1] (setting [7]) was found to be 4.6 nM. Besides, the AUC(0-inf) was 378 ng·h/mL in series [2] and 413 ng·h/mL in series [3]. This molecule came in with a bioavailability in series [3] of 22%. The Kp in series [4] (setting [8]) and in series [4] (setting [9]) was 0.81 throughout. Besides, the “Microsomal Stability” value is 24 min in series [5] and >30 min in series [6].

On to `O=S(=O)(c1cccc2ccccc12)c1nn(Cc2ccccc2)c2ccc(N3CCNCC3)cc12` [Example 2, 1-Benzyl-3-(naphthalene-1-sulfonyl)-5-piperazin-1-yl-1H-indazole dihydrochloride], for which the Ki in series [1] (setting [7]) turned out to be 7.5 nM. The AUC(0-inf) in series [2] came out at 843 ng·h/mL; in series [3], 2100 ng·h/mL. In addition, the bioavailability in series [3] was determined as 50%. Moreover, the Kp in series [4] (setting [8]) and in series [4] (setting [9]) was 0.26 in each case. The “Microsomal Stability” value in series [5] is 25 min; in series [6] it was 13 min.

Regarding `Cn1nc(S(=O)(=O)c2cccc3ccccc23)c2cc(N3CCNCC3)ccc21` [Example 5, 1-Methyl-3-(naphthalen-1-ylsulfonyl)-5-(piperazin-1-yl)-1H-indazole dihydrochloride], the Ki in series [1] (setting [7]) is 1.6 nM. Also, in series [4] (setting [8]), the Kp turned out to be 0.3.
